Assay results taken from US20250082660A1 (priority 2023, published 2025).
Structures can show the parent of a compound that is named as a salt. Where two headings read alike, the source gives them in different places.

Legend:
[1] = biological target: T1, cytosolic phospholipase A2 (cPLA2, PLA2G4) (Homo sapiens, UniProt P47712); experiment: cPLA2 phosphorylation
T1 sequence (P47712 1-749): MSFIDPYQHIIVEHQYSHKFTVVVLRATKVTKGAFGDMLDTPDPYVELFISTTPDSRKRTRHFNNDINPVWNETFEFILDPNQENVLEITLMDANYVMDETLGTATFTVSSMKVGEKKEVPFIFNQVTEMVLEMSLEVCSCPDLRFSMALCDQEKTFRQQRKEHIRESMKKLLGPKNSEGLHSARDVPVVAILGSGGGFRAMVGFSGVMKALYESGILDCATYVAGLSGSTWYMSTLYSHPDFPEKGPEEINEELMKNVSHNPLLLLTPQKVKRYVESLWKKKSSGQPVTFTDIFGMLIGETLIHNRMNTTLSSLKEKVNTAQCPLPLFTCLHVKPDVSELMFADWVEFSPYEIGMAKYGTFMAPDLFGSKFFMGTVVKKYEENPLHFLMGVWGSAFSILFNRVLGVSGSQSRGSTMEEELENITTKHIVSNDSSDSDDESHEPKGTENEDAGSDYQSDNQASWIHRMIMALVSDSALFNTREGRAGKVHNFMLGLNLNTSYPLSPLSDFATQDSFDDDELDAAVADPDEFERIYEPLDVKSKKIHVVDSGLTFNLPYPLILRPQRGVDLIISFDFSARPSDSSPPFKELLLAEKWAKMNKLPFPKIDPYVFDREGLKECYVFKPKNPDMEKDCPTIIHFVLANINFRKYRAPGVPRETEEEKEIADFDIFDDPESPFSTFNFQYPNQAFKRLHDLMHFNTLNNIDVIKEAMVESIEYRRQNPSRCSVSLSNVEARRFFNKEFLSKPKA

[2] = biological target: T2, CYP1A1 enzyme (Homo sapiens, UniProt P04798); conditions: cited from earlier work
T2 sequence (P04798 1-512): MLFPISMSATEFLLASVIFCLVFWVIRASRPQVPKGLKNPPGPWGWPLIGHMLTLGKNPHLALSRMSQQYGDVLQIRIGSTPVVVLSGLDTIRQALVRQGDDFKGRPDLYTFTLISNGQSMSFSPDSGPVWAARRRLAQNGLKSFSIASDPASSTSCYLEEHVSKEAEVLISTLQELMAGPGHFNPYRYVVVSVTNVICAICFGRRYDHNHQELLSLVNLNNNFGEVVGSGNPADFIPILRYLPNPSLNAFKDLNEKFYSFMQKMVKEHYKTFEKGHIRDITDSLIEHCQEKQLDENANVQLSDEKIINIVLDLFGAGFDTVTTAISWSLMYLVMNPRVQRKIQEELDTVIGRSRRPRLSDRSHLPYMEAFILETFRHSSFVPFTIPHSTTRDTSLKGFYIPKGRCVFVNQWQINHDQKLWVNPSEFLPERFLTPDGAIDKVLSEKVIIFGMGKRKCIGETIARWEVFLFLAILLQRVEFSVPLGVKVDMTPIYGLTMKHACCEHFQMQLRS

[3] = cited from earlier work
[4] = test system: loperamide-induced acute model mice; format: in vivo, C57BL/6J Mus musculus; conditions: oral loperamide 2.5 mg/kg, 0-9 h after treatment, mean±SEM, n=6
Experimental: Six-week-old male (18-22 g) C57BL/6J Mus musculus were obtained from Laboratory Animal Services Center, The Chinese University of Hong Kong. All mice were housed in an environmentally controlled room (22±1° C.; ˜ 50% relative humidity) with a 12-h light-dark cycle, and fed a normal rodent diet and water. Animal care was approved by the Committee on the Use of Human and Animal Subjects in Teaching and Research, Hong Kong Baptist University (REC/19-20/0300).
Mice were randomly assigned to the following four groups (n=6 per group): control group, loperamide group, loperamide+CDD-2101 group, and loperamide+Senna group. The mice in the control group were only orally treated with Milli-Q water. The other groups were orally administrated with loperamide (2.5 mg/kg body weight). CDD-2101 and Senna were administered based on the clinical dosages of MZRW and Senna, respectively, used in constipation patients. The CDD-2101 group was orally administered with 30 g/d/kg body weight. The Senna group was given 8 tablets/day.
All fecal pellets produced during the first 5 min were discarded. Then fecal samples were collected, and the frequency was recorded for the next 9 h. Fecal pellets were put into tubes set in dry ice. After collection, they were stored at −80° C. for further use. Gastrointestinal motility was calculated from pellet frequency. The secretion was determined by pellet water content.

[5] = biological target: T3, ALOX5 (Homo sapiens, UniProt P09917); conditions: in vitro and in vivo; cited from earlier work
T3 sequence (P09917 1-674): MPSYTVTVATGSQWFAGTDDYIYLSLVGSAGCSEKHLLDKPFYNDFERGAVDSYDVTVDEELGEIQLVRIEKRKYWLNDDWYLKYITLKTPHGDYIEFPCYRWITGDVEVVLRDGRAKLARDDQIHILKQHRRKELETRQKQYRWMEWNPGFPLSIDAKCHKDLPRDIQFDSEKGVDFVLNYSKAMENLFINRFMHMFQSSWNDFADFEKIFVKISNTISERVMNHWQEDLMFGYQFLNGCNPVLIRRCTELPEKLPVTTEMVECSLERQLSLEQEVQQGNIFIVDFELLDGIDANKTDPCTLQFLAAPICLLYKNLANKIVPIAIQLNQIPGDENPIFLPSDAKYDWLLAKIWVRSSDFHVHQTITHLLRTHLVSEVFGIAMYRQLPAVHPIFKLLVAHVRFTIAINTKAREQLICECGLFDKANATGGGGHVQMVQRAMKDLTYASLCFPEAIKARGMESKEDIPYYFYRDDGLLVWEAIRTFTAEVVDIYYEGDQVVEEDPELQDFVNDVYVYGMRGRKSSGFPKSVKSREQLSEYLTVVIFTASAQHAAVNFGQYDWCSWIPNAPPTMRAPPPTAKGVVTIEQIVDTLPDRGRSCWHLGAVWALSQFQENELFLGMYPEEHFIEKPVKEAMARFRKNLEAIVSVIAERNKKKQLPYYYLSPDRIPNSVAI

[6] = biological target: T4, CYP1A2 (Homo sapiens, UniProt P05177); conditions: cited from earlier work
T4 sequence (P05177 1-516): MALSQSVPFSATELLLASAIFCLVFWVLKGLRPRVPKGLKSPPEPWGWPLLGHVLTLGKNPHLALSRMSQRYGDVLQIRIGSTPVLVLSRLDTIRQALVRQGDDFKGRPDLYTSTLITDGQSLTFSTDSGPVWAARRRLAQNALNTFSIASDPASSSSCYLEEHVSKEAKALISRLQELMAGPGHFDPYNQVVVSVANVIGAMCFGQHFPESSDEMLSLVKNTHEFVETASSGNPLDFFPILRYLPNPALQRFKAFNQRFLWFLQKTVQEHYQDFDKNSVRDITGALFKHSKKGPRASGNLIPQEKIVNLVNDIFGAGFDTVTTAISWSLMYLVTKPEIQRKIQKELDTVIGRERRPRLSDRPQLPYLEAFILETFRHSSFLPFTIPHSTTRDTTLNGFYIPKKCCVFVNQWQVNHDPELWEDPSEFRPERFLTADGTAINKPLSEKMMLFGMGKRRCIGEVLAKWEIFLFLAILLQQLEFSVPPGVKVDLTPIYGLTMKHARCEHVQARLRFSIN

[7] = Fecal phytochemistry: metabolism of Senna ingredients; format: in vivo, C57BL/6J Mus musculus; conditions: Senna group, feces
Text: First, the phytochemical compounds in CDD-2101 and feces were characterized using the UHPLC/Q-TOF-MS with the same parameters as for the metabolomics analysis described in section 1.4. Potential active compounds were selected because of their frequent use in pharmacology study, and their high abundance in CDD-2101 and feces. Those compounds were confirmed by commercial standards. Second, the biological targets of these compounds were gathered by searching in BindingDB (https://www.bindingdb.org/) and STITCH (http://stitch.embl.de/). The candidate targets of constipation were gathered by searching on the keyword “constipation” in GeneCards (https://www.genecards.org/). Third, these targets were manually checked in full texts of relevant references. The confirmed proteins were considered to be the predicted targets of CDD-2101 against constipation.

SMILES: C[C@]12C[C@@H](O)[C@@H]3C[C@@]1(O[C@@H]1O[C@H](CO)[C@@H](O)[C@H](O)[C@H]1O)[C@@]3(COC(=O)c1ccccc1)C(=O)O2 [albiflorin]
- cPLA2 (PLA2G4) phosphorylation [1]: stimulated

SMILES: COc1ccc([C@@H]2CC(=O)c3c(O)cc(O)cc3O2)cc1O [hesperetin]
- binding to CYP1A1 enzyme [2]: bind

SMILES: COc1ccc([C@@H]2CC(=O)c3c(O)cc(O[C@@H]4O[C@H](CO[C@@H]5O[C@@H](C)[C@H](O)[C@@H](O)[C@H]5O)[C@@H](O)[C@H](O)[C@H]4O)cc3O2)cc1O [hesperidin]
- metabolite formed in the colon [3]: hesperetin

SMILES: CN(C)C(=O)C(CCN1CCC(O)(c2ccc(Cl)cc2)CC1)(c1ccccc1)c1ccccc1 [loperamide, Loperamide hydrochloride]
- cumulative number of fecal pellet [4]: 21.5±2.7 pellets/9 h
- fecal pellet water content [4]: 48.2±2.1%

SMILES: C=CCc1ccc(O)c(-c2cc(CC=C)ccc2O)c1 [magnolol]
- inhibition of ALOX5 enzyme [5]: strongly inhibit
- cPLA2 (PLA2G4) phosphorylation [1]: stimulated
- inhibition of CYP1A2 enzyme [6]: strongly inhibit
- binding to CYP1A1 enzyme ([2]; reported): bind

SMILES: O=C1C[C@@H](c2ccc(O)cc2)Oc2cc(O)cc(O)c21 [naringenin]
- binding to CYP1A1 enzyme [2]: bind

SMILES: O=C(O)c1cc(O)c2c(c1)[C@H]([C@H]1c3cc(C(=O)O)cc(O)c3C(=O)c3c(O[C@@H]4O[C@H](CO)[C@@H](O)[C@H](O)[C@H]4O)cccc31)c1cccc(O[C@@H]3O[C@H](CO)[C@@H](O)[C@H](O)[C@H]3O)c1C2=O [sennoside A]
- metabolite formed [7]: rhein

SMILES: O=C(O)c1cc(O)c2c(c1)[C@@H]([C@H]1c3cc(C(=O)O)cc(O)c3C(=O)c3c(O[C@@H]4O[C@H](CO)[C@@H](O)[C@H](O)[C@H]4O)cccc31)c1cccc(O[C@@H]3O[C@H](CO)[C@@H](O)[C@H](O)[C@H]3O)c1C2=O [sennoside B]
- metabolite formed [7]: rhein
